According to patent publication US20250002452A1, “BICYCLOPENTANE DERIVATIVES” (ICAGEN, LLC, priority 2022, published 2025):

target: human Kv7.2 (Homo sapiens (Human), UniProt O43526); assay: SyncroPatch 384 electrophysiology, activation of Kv7.2 in CHO cells; assay type: cell-based; conditions: Kv7.2 activation max %, relative to 30 μM ML-213 max activation
Protocol: The potency of Kv7 uotentiators was determined using the SyncroPatch 384 (Nanion) high throughput electrophysiology platform.
CHO cells stably expressing either human Kv7.2, Kv7.4 or Kv7.5/7.3 under a constitutive CMV promoter were used for these studies. Cells were maintained in F12 Hams+1 mM L-glutamine (Hyclone) supplemented with 10% FBS (Sigma), 0.3× NEAA (Non-essential Gamino-acids) and 400ug/ml G418 at 37° C. in 5% CO2. Cells were cultured in T-225 flasks (Nunc) for 2-3 days to reach 85-95% confluence prior to electrophysiological recording.
Earle's balanced salt solution (in mM): 135 NaCl, 5.4 KCl, 5 Glucose, 2 CaCl2), 1 MgCl2, 5 HEPES, pH 7.4. Seal enhancer solution (in mM): 90 NaCl, 3 KCl, 35 CaCl2), 10 MgCl2, 10 HEPES, pH 7.4. Extracellular recording solution (in mM): 71 NaCl, 70 NMDG, 13 KCl, 5 Glucose, 2 CaCl2), 1 MgCl2, 10 HEPES, pH 7.4. Intracellular recording solution (in mM): 130 KF, 20 KCl, 4 EGTA, 10 HEPES, 2 EDTA, 0.01 Escin, pH 7.2.
Cells were harvested for electrophysiological recording upon reaching appropriate confluence. Cells were first washed in DPBS (Hyclone, Cat #SH30028.03) and then 2 ml of Accutase (MP Biomedicals #1000449) was added at 28° C. until ˜90% of cells were suspended. F12 HAM's media+1 mM L-glutamine (Hyclone, SH30026.02) was then added to the flask to dilute the accutase. Cells were then triturated until a single cell suspension was achieved, a cell count was performed, and cells were centrifuged for 2 min. at 1,000 rpm. Media was then aspirated, and cells were resuspended in Earle's balanced salt solution to a concentration of 0.75×10^6 cells/ml and allowed to recover for 25 min at 10° C.
At the beginning of each assay, 20 μl of cell suspension was dispensed into each well of a multi-hole 384-well SyncroPatch chip by the onboard pipettor. Cell sealing was initiated, and seal enhancer solution was added to facilitate seal formation. Upon completion of sealing, cells were washed 3 times with extracellular recording solution and the assay voltage protocol was started. Human Kv7.2, Kv7.4 or Kv7.5/7.3 channels were evaluated using a voltage protocol in which cells were voltage-clamped at a holding potential of −60 mV. Potassium currents were continuously activated with a series of three voltage steps to −30 mV for 3 seconds, 40 mV for 1 second and −90 mV for 4 seconds with 12 seconds between successive voltage sweeps. Potassium currents were measured from the −90 mV repolarizing step. Baseline current was assessed for 3.5 minutes prior to the addition of 5.6 μM zinc pyrithione (1μM for Kv7.4). Kv7.2, Kv7.4 or Kv7.5/7.3 current in the presence of zinc pyrithione was acquired over five minutes to allow channels to reach steady state activity prior to addition of test agents. Channel activity was monitored for three minutes preceding the addition of 30 μM ML-213 (3 minutes) to achieve maximum activation. 150 mM TEA with 10 μM XE-991 was applied for 2 minutes to measure the leak current during maximum inhibition of Kv7.2, Kv7.4 or Kv7.5/7.3 channels.
Example 61 Data Analysis Data were collected on the SyncroPatch platform using PatchControl software (Nanion) and processed and analyzed using DataControl Software (Nanion). Percent activation was calculated from potassium current as follows: The average current for the 5 sweeps in the presence of zinc pyrithione immediately preceding test agent addition was taken as the ‘control’ data. Likewise, the average potassium current in the presence of test agents 5 sweeps immediately preceding addition of 30 μM ML-213 was determined for ‘drug’ data. The average potassium current 5 sweeps immediately prior to addition of 150 mM TEA+10 μM XE-991 was determined for ‘max activation’ data while average currents from 5 sweeps immediately following addition of TEA was determined for ‘max inhibition’ data. […]

Row | Kv7.2 max [%] | SMILES
1 | 58 | C[C@H](NC(=O)NC12CC(C)(C1)C2)c1cccc(OC(F)(F)F)c1 [Example 26, 1-(3-methyl-1-bicyclo[1.1.1]pentanyl)-3-[(1S)-1-[3-(trifluoromethoxy)phenyl]ethyl]urea]
2 | 64 | COC12CC(NC(=O)NCc3cccc(C(F)(F)F)c3)(C1)C2 [Example 4, 1-(3-methoxy-1-bicyclo[1.1.1]pentanyl)-3-[[3-(trifluoromethyl)phenyl]methyl]urea]
3 | 56 | O=C(NCc1cccc(OCF)c1)NC12CC(C(F)(F)F)(C1)C2 [Example 34, 1-[[3-(fluoromethoxy)phenyl]methyl]-3-[3-(trifluoromethyl)-1-bicyclo[1.1.1]pentanyl]urea]
4 | 40 | CC(C)C12CC(NC(=O)N[C@@H](C)c3cccc(OC(F)(F)F)c3)(C1)C2 [Example 27, 1-(3-propan-2-yl-1-bicyclo[1.1.1]pentanyl)-3-[(1S)-1-[3-(trifluoromethoxy)phenyl]ethyl]urea]
5 | 58 | N#Cc1cccc(CNC(=O)NC23CC(C(F)F)(C2)C3)c1 [Example 15, 1-[(3-cyanophenyl)methyl]-3-[3-(difluoromethyl)-1-bicyclo[1.1.1]pentanyl]urea]
6 | 45 | C[C@H](NC(=O)NC12CC(C1)C2)c1cccc(OC(F)(F)F)c1 [Example 25, 1-(1-bicyclo[1.1.1]pentanyl)-3-[(1S)-1-[3-(trifluoromethoxy)phenyl]ethyl]urea]
7 | 41 | N#Cc1cccc(CNC(=O)NC23CC(C(F)(F)F)(C2)C3)c1 [Example 5, 1-[(3-cyanophenyl)methyl]-3-[3-(trifluoromethyl)-1-bicyclo[1.1.1]pentanyl]urea]
8 | 52 | O=C(NCc1cccc(OC(F)F)c1)NC12CC(C(F)(F)F)(C1)C2 [Example 29, 1-[[3-(difluoromethoxy)phenyl]methyl]-3-[3-(trifluoromethyl)-1-bicyclo[1.1.1]pentanyl]urea]
9 | 50 | CC12CC(NC(=O)NCc3cccc(C#N)c3)(C1)C2 [Example 14, 1-[(3-cyanophenyl)methyl]-3-(3-methyl-1-bicyclo[1.1.1]pentanyl)urea]
10 | 53 | N#CCOc1cccc(CNC(=O)NC23CC(C(F)(F)F)(C2)C3)c1 [Example 49, 1-[[3-(cyanomethoxy)phenyl]methyl]-3-[3-(trifluoromethyl)-1-bicyclo[1.1.1]pentanyl]urea]
11 | 70 | O=C(NCc1cccc(OC(F)(F)F)c1)NC12CC(C(F)(F)F)(C1)C2 [Example 2, 1-[[3-(trifluoromethoxy)phenyl]methyl]-3-[3-(trifluoromethyl)-1-bicyclo[1.1.1]pentanyl]urea]
12 | 63 | [2H]C([2H])(NC(=O)NC12CC(C(F)(F)F)(C1)C2)c1cccc(OC(F)(F)F)c1 [Example 35, 1-[dideuterio-[3-(trifluoromethoxy)phenyl]methyl]-3-[3-(trifluoromethyl)-1-bicyclo[1.1.1]pentanyl]urea]
13 | 51 | C[C@H](NC(=O)NC12CC(F)(C1)C2)c1cccc(C(F)(F)F)c1 [Example 9, 1-(3-fluoro-1-bicyclo[1.1.1]pentanyl)-3-[(1S)-1-[3-(trifluoromethyl)phenyl]ethyl]urea]
14 | 67 | CC(C)C12CC(NC(=O)NCc3cccc(C(F)(F)F)c3)(C1)C2 [Example 21, 1-(3-propan-2-yl-1-bicyclo[1.1.1]pentanyl)-3-[[3-(trifluoromethyl)phenyl]methyl]urea]
15 | 52 | C[C@H](NC(=O)NC12CC(C1)C2)c1cccc(C(F)(F)F)c1 [Example 51, 1-(1-bicyclo[1.1.1]pentanyl)-3-[(1S)-1-[3-(trifluoromethyl)phenyl]ethyl]urea]
16 | 57 | COc1cccc([C@H](C)NC(=O)NC23CC(F)(C2)C3)c1 [Example 8, 1-(3-fluoro-1-bicyclo[1.1.1]pentanyl)-3-[(1S)-1-(3-methoxyphenyl)ethyl]urea]
17 | 48 | O=C(N[C@@H](CO)c1cccc(Cl)c1)NC12CC(C(F)(F)F)(C1)C2 [Example 3, 1-[(1R)-1-(3-chlorophenyl)-2-hydroxyethyl]-3-[3-(trifluoromethyl)-1-bicyclo[1.1.1]pentanyl]urea]
18 | 40 | N#Cc1cccc(CNC(=O)NC23CC(C(F)(F)F)(C2)C3)c1F [Example 47, 1-[(3-cyano-2-fluorophenyl)methyl]-3-[3-(trifluoromethyl)-1-bicyclo[1.1.1]pentanyl]urea]
19 | 75 | O=C(NCc1cccc(OC(F)(F)F)c1)NC12CC(C1)C2 [Example 28, 1-(1-bicyclo[1.1.1]pentanyl)-3-[[3-(trifluoromethoxy)phenyl]methyl]urea]
20 | 40 | CC(NC(=O)NC12CC(F)(C1)C2)c1cccc(OC(F)F)c1 (stereo not drawn) [Example 38, 1-[1-[3-(difluoromethoxy)phenyl]ethyl]-3-(3-fluoro-1-bicyclo[1.1.1]pentanyl)urea]
21 | 67 | O=C(NCc1cccc(OCC(F)(F)F)c1)NC12CC(C(F)(F)F)(C1)C2 [Example 58, 1-[[3-(2,2,2-trifluoroethoxy)phenyl]methyl]-3-[3-(trifluoromethyl)-1-bicyclo[1.1.1]pentanyl]urea]
22 | 40 | C[C@H](NC(=O)NC12CC(F)(C1)C2)c1cccc(OC(F)(F)F)c1 [Example 10, 1-(3-fluoro-1-bicyclo[1.1.1]pentanyl)-3-[(1S)-1-[3-(trifluoromethoxy)phenyl]ethyl]urea]
23 | 47 | C[C@H](NC(=O)NC12CC(F)(C1)C2)c1cccc(Cl)c1 [Example 18, 1-[(1S)-1-(3-chlorophenyl)ethyl]-3-(3-fluoro-1-bicyclo[1.1.1]pentanyl)urea]
24 | 48 | N#Cc1cccc(CNC(=O)NC23CC(F)(C2)C3)c1 [Example 13, 1-[(3-cyanophenyl)methyl]-3-(3-fluoro-1-bicyclo[1.1.1]pentanyl)urea]
25 | 69 | O=C(N[C@@H](CO)c1cccc(Br)c1)NC12CC(F)(C1)C2 [Example 17, 1-[(1R)-1-(3-bromophenyl)-2-hydroxyethyl]-3-(3-fluoro-1-bicyclo[1.1.1]pentanyl)urea]
26 | 42 | [2H]C([2H])(NC(=O)NC12CC(C(F)(F)F)(C1)C2)c1cccc(C#N)c1 [Example 52, 1-[(3-cyanophenyl)-dideuteriomethyl]-3-[3-(trifluoromethyl)-1-bicyclo[1.1.1]pentanyl]urea]
27 | 77 | O=C(N[C@@H](CO)c1cccc(OC(F)(F)F)c1)NC12CC(C(F)(F)F)(C1)C2 [Example 55, 1-[(1R)-2-hydroxy-1-[3-(trifluoromethoxy)phenyl]ethyl]-3-[3-(trifluoromethyl)-1-bicyclo[1.1.1]pentanyl]urea]
28 | 60 | O=C(NCc1cccc(C(F)F)c1)NC12CC(C(F)(F)F)(C1)C2 [Example 31, 1-[[3-(difluoromethyl)phenyl]methyl]-3-[3-(trifluoromethyl)-1-bicyclo[1.1.1]pentanyl]urea]
29 | 78 | O=C(N[C@@H](CO)c1cccc(C(F)(F)F)c1)NC12CC(C1)C2 [Example 54, 1-(1-bicyclo[1.1.1]pentanyl)-3-[(1R)-2-hydroxy-1-[3-(trifluoromethyl)phenyl]ethyl]urea]
30 | 80 | O=C(NCc1cccc(C(F)(F)F)c1)NC12CC(F)(C1)C2 [Example 11, 1-(3-fluoro-1-bicyclo[1.1.1]pentanyl)-3-[[3-(trifluoromethyl)phenyl]methyl]urea]
